Measurements reported in patent EP0044212B1, “Herbicidal o-alkylsulfonyloxy- and o-alkylsulfonylamino-benzenesulfonamides” (E.I. DU PONT DE NEMOURS AND COMPANY, priority 1980, dated 1982).

What was measured:
Crabgrass [1] = experiment: Test B pre-emergence on Fallsington silt loam; type: in vivo, Digitaria sanguinalis; parameters: scale not given here; conditions: 28 days
Excerpt: (§1) Two plastic bulb pans were filled with fertilized and limed Fallsington silt loam soil. One pan was planted with corn, sorghum, Kentucky bluegrass and several grassy weeds. The other pan was planted with cotton, soybeans, purple nutsedge (Cyperus rotundus), and several broadleaf weeds. The following grassy and broadleaf weeds were planted: crabgrass (Digitaria sanguinalis), barnyardgrass (Echinochloa crusgalli), wild oats (Avena fatua), johnsongrass (Sorghum halepense), dallisgrass (Paspalum dilatatum), giant foxtail (Setaria faberii), cheatgrass (Bromus secalinus), mustard (Brassica arvensis), cocklebur (Xanthium pensylvanicum), pigweed (Amaranthus retroflexus), morningglory (Ipomoea hederacea), cassia (Cassia tora), teaweed (Sida spinosa), velvetleaf (Abutilon theophrasti), and jimsonweed (Datura stramonium). A 12.5 cm diameter plastic pot was also filed with prepared soil and planted with rice and wheat. Another 12.5 cm pot was planted with sugarbeets. The above four containers were treated pre- emergence with several test compounds within the scope of the invention.
(§2) Twenty-eight days after treatment, the plants were evaluated and visually rated for response to the chemical treatments utilizing the rating system described previously for Test A. The data are summarized in Table B.

Barnyardgrass [2] = experiment: Test B pre-emergence on Fallsington silt loam; type: in vivo, Echinochloa crusgalli; conditions: 28 days
Excerpt: as §1, §2

Johnsongrass = experiment: Test B pre-emergence on Fallsington silt loam; type: in vivo, Sorghum halepense; parameters: scale not given here; conditions: 28 days
Excerpt: as §1, §2

Dallisgrass = experiment: Test B pre-emergence on Fallsington silt loam; type: in vivo, Paspalum dilatatum; parameters: scale not given here; conditions: 28 days
Excerpt: as §1, §2

Giant Foxtail [3] = experiment: Test B pre-emergence on Fallsington silt loam; type: in vivo, Setaria faberii; conditions: 28 days
Excerpt: as §1, §2

Ky. bluegrass = experiment: Test B pre-emergence on Fallsington silt loam; type: in vivo, Kentucky bluegrass; parameters: scale not given here; conditions: 28 days
Excerpt: as §1, §2

Cheatgrass = experiment: Test B pre-emergence on Fallsington silt loam; type: in vivo, Bromus secalinus; conditions: 0.007 kg/ha, 28 days
Excerpt: as §1, §2

Corn [4] = experiment: Test B pre-emergence on Fallsington silt loam; type: in vivo; parameters: scale not given here; conditions: 28 days
Excerpt: as §1, §2

Sugarbeets [5] = experiment: Test B pre-emergence on Fallsington silt loam; type: in vivo; parameters: scale not given here; conditions: 28 days
Excerpt: as §1, §2

Wheat [6] = experiment: Test B pre-emergence on Fallsington silt loam; type: in vivo; parameters: scale not given here; conditions: 28 days
Excerpt: as §1, §2

Pigweed = experiment: Test B pre-emergence on Fallsington silt loam; type: in vivo, Amaranthus retroflexus; conditions: 28 days
Excerpt: as §1, §2

Nutsedge [7] = experiment: Test B pre-emergence on Fallsington silt loam; type: in vivo, Cyperus rotundus; conditions: 28 days
Excerpt: as §1, §2

Morningglory = experiment: Test B pre-emergence on Fallsington silt loam; type: in vivo, Ipomoea hederacea; conditions: 28 days
Excerpt: as §1, §2

Cassia = experiment: Test B pre-emergence on Fallsington silt loam; type: in vivo, Cassia tora; conditions: 28 days
Excerpt: as §1, §2

Soybean = experiment: Test B pre-emergence on Fallsington silt loam; type: in vivo, soybeans; conditions: 28 days
Excerpt: as §1, §2

Corn [8] = experiment: Test F over-the-top soil/foliage treatment; type: in vivo; conditions: soil/foliage spray, ~14 days
Description: (§3) The test chemicals, dissolved in a non-phytotoxic solvent, were applied in an overall spray to the foliage and surrounding […] of selected plant species. […] Approximately fourteen days after treatment, all species were visually compared to untreated controls and rated for response to treatment.
(§4) All plant species were seeded in Woodstown sandy loam soil and grown in a greenhouse. The following species were grown in soil contained in plastic pots (25 cm diameter by 13 cm deep): soybeans, cotton, alfalfa, corn, rice, wheet, sorghum, velvetleaf (Abutilon theophrasti), sesbania (Sesbania exaltata), Cassia (Cassia tora), morningglory (Ipomoea hederacea), jimsonweed (Datura stramonium), cocklebur (Xanthium pensylvanicum), crabgrass (Digitaria spp.), nutsedge (Cyperus rotundus), barnyardgrass (Echinochloa crusgalli), giant foxtail (Setaria faberii) and wild oats (Avena fatua). The following species were grown in soil in a paper cup (12 cm diameter by 13 cm deep): sunflower, sugarbeets, and mustard. All plants were sprayed approximately 14 days after planting.

Mustard = experiment: Test F over-the-top soil/foliage treatment; type: in vivo; conditions: soil/foliage spray; 0.007 kg/ha; ~14 days
Description: as §3, §4

Sugarbeets [9] = experiment: Test F over-the-top soil/foliage treatment; type: in vivo; conditions: soil/foliage spray; 0.007 kg/ha; ~14 days
Description: as §3, §4

Sunflower = experiment: Test F over-the-top soil/foliage treatment; type: in vivo; conditions: soil/foliage spray; 0.007 kg/ha; ~14 days
Description: as §3, §4

Sesbania = experiment: Test F over-the-top soil/foliage treatment; type: in vivo, Sesbania exaltata; parameters: scale not given here; conditions: soil/foliage spray, ~14 days
Description: as §3, §4

Alfalfa = experiment: Test F over-the-top soil/foliage treatment; type: in vivo; parameters: scale not given here; conditions: soil/foliage spray, ~14 days
Description: as §3, §4

Sorghum = experiment: Test F over-the-top soil/foliage treatment; type: in vivo; parameters: scale not given here; conditions: soil/foliage spray, ~14 days
Description: as §3, §4

Jimsonweed = experiment: Test F over-the-top soil/foliage treatment; type: in vivo, Datura stramonium; conditions: soil/foliage spray; 0.003 kg/ha; ~14 days
Description: as §3, §4

Crabgrass [10] = experiment: Test F over-the-top soil/foliage treatment; type: in vivo, Digitaria spp.; parameters: scale not given here; conditions: soil/foliage spray, ~14 days
Description: as §3, §4

Nutsedge [11] = experiment: Test F over-the-top soil/foliage treatment; type: in vivo, Cyperus rotundus; parameters: scale not given here; conditions: soil/foliage spray, ~14 days
Description: as §3, §4

Barnyardgrass [12] = experiment: Test F over-the-top soil/foliage treatment; type: in vivo, Echinochloa crusgalli; parameters: scale not given here; conditions: soil/foliage spray, ~14 days
Description: as §3, §4

Wheat [13] = experiment: Test F over-the-top soil/foliage treatment; type: in vivo, wheet; parameters: scale not given here; conditions: soil/foliage spray, ~14 days
Description: as §3, §4

Giant Foxtail [14] = experiment: Test F over-the-top soil/foliage treatment; type: in vivo, Setaria faberii; parameters: scale not given here; conditions: soil/foliage spray, ~14 days
Description: as §3, §4

Wild Oats = experiment: Test F over-the-top soil/foliage treatment; type: in vivo, Avena fatua; parameters: scale not given here; conditions: soil/foliage spray, ~14 days
Description: as §3, §4

Cc1cc(C)nc(NC(=O)NS(=O)(=O)c2ccccc2OS(C)(=O)=O)n1 [Compound 3, N-[(4,6-dimethylpyrimidin-2-yl)aminocarbonyl]-2-hydroxybenzenesulfonamide, methanesulfonate]
0: Crabgrass response rating (Crabgrass [1]; 0.007 kg/ha) | Crabgrass response rating (Crabgrass [1]; 0.015 kg/ha) | Johnsongrass response rating (Johnsongrass; 0.007 kg/ha) | Dallisgrass response rating (Dallisgrass; 0.007 kg/ha) | Giant Foxtail response rating (Giant Foxtail [3]; 0.007 kg/ha) | Ky. bluegrass response rating (Ky. bluegrass; 0.007 kg/ha) | Cheatgrass response rating (Cheatgrass) | Corn response rating (Corn [4]; 0.007 kg/ha) | Corn response rating (Corn [4]; 0.015 kg/ha) | Wheat response rating (Wheat [6]; 0.007 kg/ha) | Wheat response rating (Wheat [6]; 0.015 kg/ha) | Pigweed response rating (Pigweed; 0.007 kg/ha) | Nutsedge response rating (Nutsedge [7]; 0.007 kg/ha) | Nutsedge response rating (Nutsedge [7]; 0.015 kg/ha) | Cassia response rating (Cassia; 0.007 kg/ha) | Cassia response rating (Cassia; 0.015 kg/ha) | Soybean response rating (Soybean; 0.007 kg/ha) | Soybean response rating (Soybean; 0.015 kg/ha) | Jimsonweed response rating (Jimsonweed) | Crabgrass response rating (Crabgrass [10]; 0.003 kg/ha) | Crabgrass response rating (Crabgrass [10]; 0.015 kg/ha) | Giant Foxtail response rating (Giant Foxtail [14]; 0.003 kg/ha) | Giant Foxtail response rating (Giant Foxtail [14]; 0.007 kg/ha)
3C: Giant Foxtail response rating (Giant Foxtail [3]; 0.03 kg/ha)
7G: Alfalfa response rating (Alfalfa; 0.007 kg/ha) | Nutsedge response rating (Nutsedge [11]; 0.007 kg/ha)
10C: Johnsongrass response rating (Johnsongrass; 0.03 kg/ha) | Johnsongrass response rating (Johnsongrass; 0.12 kg/ha) | Ky. bluegrass response rating (Ky. bluegrass; 0.03 kg/ha) | Corn response rating (Corn [4]; 0.03 kg/ha) | Corn response rating (Corn [4]; 0.12 kg/ha) | Sugarbeets response rating (Sugarbeets [5]; 0.03 kg/ha) | Sugarbeets response rating (Sugarbeets [5]; 0.12 kg/ha) | Pigweed response rating (Pigweed; 0.12 kg/ha) | Corn response rating (Corn [8]; 0.06 kg/ha) | Mustard response rating (Mustard) | Sugarbeets response rating (Sugarbeets [9]) | Sunflower response rating (Sunflower) | Sorghum response rating (Sorghum; 0.06 kg/ha) | Barnyardgrass response rating (Barnyardgrass [12]; 0.06 kg/ha) | Wild Oats response rating (Wild Oats; 0.06 kg/ha)
1C: Wheat response rating (Wheat [13]; 0.015 kg/ha)
6G: Crabgrass response rating (Crabgrass [1]; 0.12 kg/ha) | Dallisgrass response rating (Dallisgrass; 0.03 kg/ha) | Wheat response rating (Wheat [13]; 0.007 kg/ha)
2G: Barnyardgrass response rating (Barnyardgrass [2]; 0.007 kg/ha) | Barnyardgrass response rating (Barnyardgrass [2]; 0.015 kg/ha) | Ky. bluegrass response rating (Ky. bluegrass; 0.015 kg/ha)
9G: Corn response rating (Corn [8]; 0.007 kg/ha)
8G: Morningglory response rating (Morningglory; 0.03 kg/ha)
8C: Alfalfa response rating (Alfalfa; 0.015 kg/ha) | Wheat response rating (Wheat [13]; 0.06 kg/ha)
3G: Johnsongrass response rating (Johnsongrass; 0.015 kg/ha) | Dallisgrass response rating (Dallisgrass; 0.015 kg/ha) | Giant Foxtail response rating (Giant Foxtail [3]; 0.015 kg/ha) | Morningglory response rating (Morningglory; 0.007 kg/ha) | Morningglory response rating (Morningglory; 0.015 kg/ha) | Wheat response rating (Wheat [13]; 0.003 kg/ha)
4G: Sugarbeets response rating (Sugarbeets [5]; 0.015 kg/ha) | Wild Oats response rating (Wild Oats; 0.003 kg/ha)
9C: Sesbania response rating (Sesbania; 0.015 kg/ha) | Sesbania response rating (Sesbania; 0.06 kg/ha) | Alfalfa response rating (Alfalfa; 0.06 kg/ha) | Sorghum response rating (Sorghum; 0.015 kg/ha) | Barnyardgrass response rating (Barnyardgrass [12]; 0.015 kg/ha)
5G: Crabgrass response rating (Crabgrass [1]; 0.03 kg/ha) | Wheat response rating (Wheat [6]; 0.03 kg/ha) | Nutsedge response rating (Nutsedge [11]; 0.003 kg/ha) | Wild Oats response rating (Wild Oats; 0.007 kg/ha)
